Laboratory results published in patent publication US20160113888A1, “PHARMACEUTICAL COMPOSITION FOR TREATMENT OF CANCER” (NATIONAL INSTITUTE OF ADVANCED INDUSTRIAL SCIENCE AND …, priority 2013, published 2016).

Columns and labels:
[1] = system: human osteosarcoma cells (U2OS); assay: Cytotoxicity assay using MTT, U2OS; assay type: cell-based; settings: FIG. 5
Experimental: (§1) Human osteosarcoma cells (U2OS) were cultured in a humidified incubator (37° C., 5% CO2) using a medium in which Dulbecco's modified Eagle's medium (DMEM, Invitrogen) is added with 10% bovine fetal serum. The cells were cultured to become 40% to 60% confluent and treated with AshLe-WEX (final concentration: 1%; 200 μg/mL) and the 1st and 2nd fractions thereof (AshLe-WEX-F1 and F2), respectively. The cells were treated over about 48 hours during culture at 37° C.
(§2) AshLe-WEX and the fractions thereof were evaluated in terms of cytotoxicity by assay using MTT. After the above treatment, MTT (0.5 mg/mL) was added to each cell culture medium, followed by incubation for 4 hours. Next, the medium containing MTT was removed and 100 μL of DMSO was added to each well to completely dissolve formazan crystals. Absorbance was detected at 550 nm using a spectrophotometer (Wallac ARVO SX).
(§3) Cytotoxicity of triethylene glycol to human osteosarcoma cells (U2OS) and normal human fibroblasts (TIG-1) was tested in the manner described in item 5 above. […] Further, cell cycle analysis was conducted using human osteosarcoma cells (U2OS).

[2] = system: normal human fibroblasts (TIG-1); assay: Cytotoxicity assay using MTT, TIG-1; assay type: cell-based; settings: TIG-1, FIG. 5
Experimental: as §1, §2, §3

[3] = system: human osteosarcoma cells (U2OS); assay: Cell cycle analysis; assay type: cell-based; settings: FIG. 6
Experimental: as §3

[4] = system: HT1080 cells (human fibrosarcoma cells); assay: In vivo antitumor assay, HT1080 subcutaneous xenograft; set-up: species or system Balb/c nude mice; settings: oral administration, 250 μL of 5% triethylene glycol with 2% carboxymethyl cellulose, 12 times at intervals of two days, FIG. 7
Experimental: (§4) In vivo antitumor assay of AshLe-WEX and triethylene glycol was conducted using subcutaneous xenograft and tail vein metastasis model mice produced with the use of HT1080 cells from an invasive tumor with high lung metastasis (human fibrosarcoma cells, obtained from the JCRB Cell Bank).
HT1080 cells (6×10^6 cells in 0.2 mL of growth medium) were subcutaneously injected into Balb/c nude mice (4-week-old female mice purchased from CLEA Japan, Inc.) at two sites per mouse, and an equivalent amount of the same was injected into the tail vein of each mouse. 2% carboxymethyl cellulose was administered with feed to a control group. A mixture containing AshLe-WEX (100-250 mg/kg body weight/administration) and 2% carboxymethyl cellulose was administered with feed to an AshLe-WEX group. A TEG group was given a 5% triethylene glycol aqueous solution via oral administration (at a dose per administration of 250 μL of a preparation of 5% triethylene glycol mixed with 2% carboxymethyl cellulose) or intraperitoneal injection (at a dose per administration of 100 μL of 5% triethylene glycol). […] For metastasis assay, each mouse was euthanized by cervical dislocation 5 weeks after tail vein injection, the lung was fixed with 4% formaldehyde, and the number of tumor colonies was counted. […]

[5] = system: HT1080 cells (human fibrosarcoma cells); assay: In vivo tumor metastasis assay, HT1080 tail vein injection; set-up: species or system Balb/c nude mice
Experimental: as §4, with “AshLe-WEX” left out, “Bank). […] This administration treatment was started on day 8 after injection of HT1080 cells and repeated 12 times in total at intervals of two days. […] This assay was repeated twice using three mice for each group.” for “Bank).”

[6] = system: HT1080 cells; assay: In vitro Matrigel invasion assay; assay type: cell-based, human; settings: FIG. 9
[7] = system: p53; assay: Western blotting of p53 in U2OS; assay type: cell-based, human
Source text: (§5) In order to investigate the cytotoxicity action mechanism of triethylene glycol, human osteosarcoma cells (U2OS) and normal human fibroblasts (TIG-1) were each treated with […] or triethylene glycol (TEG), and the expression of cancer-inhibiting proteins p53 and pRB was examined by SDS-PAGE and Western blotting. […] Numbers 1-5 in the bar charts of the expression level in the lower half of FIG. 10A correspond to numbers 1-5 of the lanes in the photo images in the upper half of FIG. 10A.

[8] = system: p53; assay: Western blotting of p53 in TIG-1; assay type: cell-based, human; settings: normal cells (TIG-1)
Source text: as §5

[9] = system: p21; assay: Western blotting of p21 in TIG-1; assay type: cell-based, human; settings: normal cells (TIG-1), 48 hours, vs control, FIG. 10A
Source text: as §5

[10] = system: pRB; assay: Western blotting of pRB in U2OS; assay type: cell-based, human
Source text: as §5

[11] = system: pRB; assay: Western blotting of pRB in TIG-1; assay type: cell-based, human; settings: normal cells (TIG-1), vs control
Source text: as §5

[12] = system: cyclin-B1; assay: Western blotting of cyclin-B1 in U2OS; assay type: cell-based, human; settings: cancer cells (U2OS), FIG. 10B
Source text: as §5, with “10A. […] In parallel with the above, the expression levels of cyclin-B1, -D1, and -E1 and CDK-2, -4, and -6 were examined. […] On the other hand, the tendency regarding the expression levels for cyclin-D1 was the opposite of that for cyclin-B1. In the case of treatment with triethylene glycol, the expression level of cyclin-D1 increased in cancer cells but decreased in normal cells. The expression level of cyclin-E1 increased in both cancer cells and normal cells. The expression level of CDK-4 decreased in normal cells.” for “10A.”

[13] = system: cyclin-B1; assay: Western blotting of cyclin-B1 in TIG-1; assay type: cell-based, human; settings: normal cells (TIG-1), vs control, FIG. 10B
Source text: as §5, with “10A. […] In parallel with the above, the expression levels of cyclin-B1, -D1, and -E1 and CDK-2, -4, and -6 were examined. […] On the other hand, the tendency regarding the expression levels for cyclin-D1 was the opposite of that for cyclin-B1. In the case of treatment with triethylene glycol, the expression level of cyclin-D1 increased in cancer cells but decreased in normal cells. The expression level of cyclin-E1 increased in both cancer cells and normal cells. The expression level of CDK-4 decreased in normal cells.” for “10A.”

[14] = system: cyclin-D1; assay: Western blotting of cyclin-D1 in U2OS; assay type: cell-based, human; settings: cancer cells (U2OS), FIG. 10B
Experimental: (§6) In order to investigate the cytotoxicity action mechanism of triethylene glycol, human osteosarcoma cells (U2OS) and normal human fibroblasts (TIG-1) were each treated with AshLe-WEX or triethylene glycol (TEG), and the expression of cancer-inhibiting proteins p53 and pRB was examined by SDS-PAGE and Western blotting. Treatment with AshLe-WEX or triethylene glycol (TEG) was conducted by adding AshLe-WEX (final concentration: 0.5%) or triethylene glycol (final concentration: 0.5%, 1.0%, or 2.0%) to a medium for culturing cells and culturing for 48 hours. […] Numbers 1-5 in the bar charts of the expression level in the lower half of FIG. 10A correspond to numbers 1-5 of the lanes in the photo images in the upper half of FIG. 10A. […] It was found based on the proportion of phosphorylated-p53/p53 that phosphorylation rate increased in cells treated with AshLe-WEX or triethylene glycol by 30% to 40%, as compared with the control group. […] The proportion of phosphorylated-pRB/RB decreased from about 0.5 in control cells to about 0.3 in cells treated with triethylene glycol ([…]) while it increased by about 20% in normal cells in contrast.
(§7) In parallel with the above, the expression levels of cyclin-B1, -D1, and -E1 and CDK-2, -4, and -6 were examined. […] On the other hand, the tendency regarding the expression levels for cyclin-D1 was the opposite of that for cyclin-B1. […]

[15] = system: cyclin-D1; assay: Western blotting of cyclin-D1 in TIG-1; assay type: cell-based, human; settings: normal cells (TIG-1), FIG. 10B
Experimental: as §6, §7

[16] = system: cyclin-E1; assay: Western blotting of cyclin-E1 in U2OS; assay type: cell-based, human; settings: cancer cells (U2OS), FIG. 10B
Experimental: as §6, §7

[17] = system: cyclin-E1; assay: Western blotting of cyclin-E1 in TIG-1; assay type: cell-based, human; settings: normal cells (TIG-1), FIG. 10B
Experimental: as §6, §7

[18] = system: CDK-4; assay: Western blotting of CDK-4 in TIG-1; assay type: cell-based, human; settings: normal cells (TIG-1), FIG. 10B
Experimental: as §6, §7

[19] = system: pRB; assay: Immunohistochemistry of pRB phosphorylation in U2OS; assay type: cell-based, human; settings: cancer cells (U2OS), 0.5%, 48 hours, FIG. 11
Experimental: (§8) Immunohistochemistry was conducted for visualizing the degree of phosphorylation of p53 and pRB in human osteosarcoma cells (U2OS) and normal human fibroblasts (TIG-1) treated with […] or triethylene glycol. Treatment with […] or triethylene glycol was conducted by adding […] or triethylene glycol to a medium such that a final concentration becomes 0.5% and culturing the cells in each medium for 48 hours. The cells were stained with an anti-p53 antibody (DO-1) and an anti-pRB antibody ([…]). Immunostaining was visualized using an Alexa-488- or Alexa-594-labeled secondary antibody. Regarding pRB, which is a downstream effector of a cyclin-CDK complex, the degree of phosphorylation decreased in cancer cells treated with […] or triethylene glycol but increased in normal cells treated with […] or triethylene glycol (FIG. 11).

[20] = system: pRB; assay: Immunohistochemistry of pRB phosphorylation in TIG-1; assay type: cell-based, human; settings: normal cells (TIG-1), 0.5%, 48 hours, FIG. 11
Experimental: as §8

[21] = system: Keap1; assay: Western blotting of Keap1 expression; assay type: cell-based; settings: human lung cancer cells (A549), FIG. 13
[22] = system: MMP-3; assay: Expression level of MMP-3; assay type: cell-based, human; settings: A549, 48 hours, AshLe-WEX 0.5% or TEG 0.5%, 1.0% or 2.0%, FIG. 14
Source text: (§9) In order to examine the antimetastatic activity mechanism of […] and triethylene glycol, the expression levels of matrix metalloproteases (MMP-9, MMP-3, and MMP-2) were examined. Human lung cancer cells (A549) were used for examination. […] This effect was not observed for MMP-2.

[23] = system: MMP-9; assay: Expression level of MMP-9; assay type: cell-based, human; settings: A549, 48 hours, AshLe-WEX 0.5% or TEG 0.5%, 1.0% or 2.0%, FIG. 14
Source text: as §9

[24] = system: MMP-2; assay: Expression level of MMP-2; assay type: cell-based, human; settings: A549, 48 hours, AshLe-WEX 0.5% or TEG 0.5%, 1.0% or 2.0%, FIG. 14
Source text: as §9

[25] = system: glioblastoma cells (C6 Glioma cells); assay: Differentiation induction assay of glioblastoma cells; assay type: cell-based; settings: 0.6%, 48 hours
Experimental: Differentiation induction of glioblastoma cells and neuroblastoma cells by triethylene glycol was examined. Differentiation of glioblastoma cells was induced by treating the cells with 100 μmol of hydrogen peroxide for 2 to 3 hours and then culturing the cells in a medium containing […] or triethylene glycol (final concentration: 0.6%) for 48 hours. Cells of a control group were treated with hydrogen peroxide in the above manner and then cultured in a medium containing neither […] nor triethylene glycol.

[26] = system: IMR32 neuroblastoma cells; assay: Differentiation induction assay of neuroblastoma cells; assay type: cell-based; settings: 0.5%, FIG. 16
Experimental: Next, effects on IMR32 neuroblastoma cells treated with […] or triethylene glycol were examined. Differentiation of neuroblastoma cells was induced by treating the neuroblastoma cells with 100 μmol of hydrogen peroxide for 2 to 3 hours and then culturing the cells in a medium containing […] or triethylene glycol (final concentration: 0.5%). As control groups, a group of cells that had been treated with hydrogen peroxide in the above manner and then cultured in a medium containing neither […] nor triethylene glycol and a group of cells that no hydrogen peroxide treatment was conducted and cultured in a medium containing neither […] nor triethylene glycol without hydrogen peroxide treatment were prepared.

[27] = cancer cells (U2OS), vs control

SMILES: OCCOCCOCCO [triethylene glycol]
- concentration at which cancer cell growth is inhibited [1]: ≥ 0.5%
- toxicity to normal human fibroblasts [2]: substantially no toxicity
- cell cycle effect [3]: G1 arrest
- tumor growth [4]: effect of tumor growth inhibition was confirmed
- antimetastatic activity ([5]; lung, 5 weeks after tail vein injection, FIG. 8): powerful antimetastatic activity
- number of lung tumors ([5]; vs control group, FIG. 8): lower than that of the control group
- lung tumor volumes ([5]; vs control group, FIG. 8B): significantly low
- invasion [6]: reduced
- expression level of p53 ([7]; U2OS, 48 hours, AshLe-WEX 0.5% or TEG 0.5%, 1.0% or 2.0%, vs control, FIG. 10A): increased
- phosphorylated-p53 protein ([7]; cancer cells (U2OS), anti-phosphoserine-specific antibody): increased
- expression level of p53 ([8]; 48 hours, vs control, FIG. 10A): increased
- phosphorylated-p53 protein ([8]; anti-phosphoserine-specific antibody): increased
- expression level of p21 [9]: increased
- proportion of phosphorylated-pRB/RB ([10]; cancer cells (U2OS) treated, control cells about 0.5): about 0.3
- decrease of proportion of phosphorylated-pRB/RB [10, 27]: about 20%
- phosphorylated-pRB [10, 27]: decreased
- increase of proportion of phosphorylated-pRB/RB [11]: about 20%
- phosphorylated-pRB [11]: increased
- expression level of cyclin-B1 [12]: decreased
- expression level of cyclin-B1 [13]: increased
- expression level of cyclin-D1 [14]: increased
- expression level of cyclin-D1 [15]: decreased
- expression level of cyclin-E1 [16]: increased
- expression level of cyclin-E1 [17]: increased
- expression level of CDK-4 [18]: decreased
- degree of phosphorylation of pRB (immunohistochemistry) [19]: decreased
- degree of phosphorylation of pRB (immunohistochemistry) [20]: increased
- expression level of Keap1 [21]: increase
- expression level of MMP-3 [22]: remarkably decreased
- expression level of MMP-9 [23]: remarkably decreased
- decrease of expression level of MMP-2 [24]: not observed
- cell form (differentiation induction) ([25]; after 100 μmol hydrogen peroxide 2 to 3 hours, FIG. 15A): astrocyte-like form
- induction of GFAP (glial cell differentiation marker protein) ([25]; after hydrogen peroxide, FIG. 15B): upregulated
- cell form (differentiation induction) ([26]; after 100 μmol hydrogen peroxide 2 to 3 hours): neuron-like form
- neurofilament protein (NF200) ([26]; after hydrogen peroxide): increase
